Test results published in US20090238808A1, “Process for the identification of novel enzyme interacting compounds” (priority 2005, published 2009).

Legend:
Experiment in all cases: Kinobeads elution with test compound, mouse brain lysate, MS
Type in all cases: binding
Conditions in all cases: kinase released from kinobeads by specific elution
p38b = biological target: T1, p38b (Mus musculus, UniProt Q9WUI1)
T1 construct: from tissue; host or cells: mouse brain
Procedure, shortened: (§1)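 Proteins captured from mouse brain lysate onto kinobeads are displaced with unmodified compound at 1.0 mM (30 min, 4° C), with 2% DMSO or DMF buffer as the control. Eluted proteins are identified by mass spectrometry after gel separation.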

p38a = biological target: T2, p38a (Mus musculus, UniProt P47811)
T2 construct: from tissue; host or cells: mouse brain
T2 sequence (P47811 whole entry): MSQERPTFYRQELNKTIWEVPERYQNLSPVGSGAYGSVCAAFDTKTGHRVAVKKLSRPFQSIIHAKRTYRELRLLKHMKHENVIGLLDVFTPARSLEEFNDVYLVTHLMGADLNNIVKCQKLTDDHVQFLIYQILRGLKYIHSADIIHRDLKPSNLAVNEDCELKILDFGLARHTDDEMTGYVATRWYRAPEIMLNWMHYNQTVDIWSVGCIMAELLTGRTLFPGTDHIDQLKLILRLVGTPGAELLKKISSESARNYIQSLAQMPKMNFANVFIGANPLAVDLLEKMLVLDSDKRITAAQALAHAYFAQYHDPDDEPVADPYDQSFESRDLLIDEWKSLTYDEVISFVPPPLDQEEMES
Procedure, shortened: as §1

ARG = ARG (Mus musculus, UniProt Q4JIM5)
ARG, sequence (Q4JIM5 whole entry): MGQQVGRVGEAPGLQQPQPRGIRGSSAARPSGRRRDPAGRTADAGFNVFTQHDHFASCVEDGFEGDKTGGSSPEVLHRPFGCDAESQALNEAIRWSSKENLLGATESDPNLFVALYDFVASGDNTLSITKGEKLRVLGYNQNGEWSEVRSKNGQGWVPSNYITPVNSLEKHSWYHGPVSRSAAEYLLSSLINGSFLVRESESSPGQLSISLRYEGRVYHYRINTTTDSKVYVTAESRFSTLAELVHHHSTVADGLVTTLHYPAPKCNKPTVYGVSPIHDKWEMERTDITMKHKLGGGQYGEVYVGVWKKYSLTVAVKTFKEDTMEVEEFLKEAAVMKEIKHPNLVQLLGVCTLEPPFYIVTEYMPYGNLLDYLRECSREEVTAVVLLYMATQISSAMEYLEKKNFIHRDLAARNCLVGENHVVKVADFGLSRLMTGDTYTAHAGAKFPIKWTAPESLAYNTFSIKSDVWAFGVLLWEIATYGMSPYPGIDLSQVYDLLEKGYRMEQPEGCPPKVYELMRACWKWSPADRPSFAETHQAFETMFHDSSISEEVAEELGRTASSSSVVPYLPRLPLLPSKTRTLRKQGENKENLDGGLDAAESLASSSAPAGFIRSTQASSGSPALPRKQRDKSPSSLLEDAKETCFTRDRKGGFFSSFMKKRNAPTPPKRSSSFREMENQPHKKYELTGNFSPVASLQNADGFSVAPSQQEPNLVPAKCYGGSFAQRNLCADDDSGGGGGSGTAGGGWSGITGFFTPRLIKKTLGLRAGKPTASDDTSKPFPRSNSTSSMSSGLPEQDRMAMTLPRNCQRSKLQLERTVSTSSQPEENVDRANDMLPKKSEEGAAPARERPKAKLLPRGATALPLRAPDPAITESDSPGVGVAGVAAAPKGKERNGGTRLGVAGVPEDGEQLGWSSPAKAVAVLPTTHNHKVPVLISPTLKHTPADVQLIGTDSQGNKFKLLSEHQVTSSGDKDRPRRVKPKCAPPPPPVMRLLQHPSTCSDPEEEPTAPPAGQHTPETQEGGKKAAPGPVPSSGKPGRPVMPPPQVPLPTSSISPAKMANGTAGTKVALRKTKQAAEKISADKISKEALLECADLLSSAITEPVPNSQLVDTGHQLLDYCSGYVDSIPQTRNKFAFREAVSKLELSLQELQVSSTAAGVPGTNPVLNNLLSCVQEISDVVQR
Procedure, shortened: as §1

TRKB = biological target: T3, TRKB (Mus musculus, UniProt P15209)
T3 construct: from tissue; host or cells: mouse brain
T3 sequence (P15209 32-821): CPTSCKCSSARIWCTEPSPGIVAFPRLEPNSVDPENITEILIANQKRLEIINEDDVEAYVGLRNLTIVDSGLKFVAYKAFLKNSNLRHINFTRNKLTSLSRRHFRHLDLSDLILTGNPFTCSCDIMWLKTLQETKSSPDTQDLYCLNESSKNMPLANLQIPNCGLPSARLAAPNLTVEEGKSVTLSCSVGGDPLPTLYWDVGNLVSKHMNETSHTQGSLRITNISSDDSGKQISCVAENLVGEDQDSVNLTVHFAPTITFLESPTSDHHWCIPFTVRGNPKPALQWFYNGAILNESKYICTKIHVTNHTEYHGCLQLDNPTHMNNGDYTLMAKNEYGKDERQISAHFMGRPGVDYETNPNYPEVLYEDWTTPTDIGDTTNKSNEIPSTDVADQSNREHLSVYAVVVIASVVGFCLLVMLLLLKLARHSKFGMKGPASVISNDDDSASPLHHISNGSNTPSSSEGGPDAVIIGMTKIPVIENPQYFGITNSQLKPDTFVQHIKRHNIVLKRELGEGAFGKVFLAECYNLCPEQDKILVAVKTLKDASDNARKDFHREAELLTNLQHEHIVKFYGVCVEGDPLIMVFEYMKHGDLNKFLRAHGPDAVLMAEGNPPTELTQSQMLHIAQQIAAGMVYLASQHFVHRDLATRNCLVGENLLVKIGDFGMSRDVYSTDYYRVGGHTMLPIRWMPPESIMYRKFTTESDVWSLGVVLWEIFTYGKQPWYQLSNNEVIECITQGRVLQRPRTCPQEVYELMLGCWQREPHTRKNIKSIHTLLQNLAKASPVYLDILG
Description: This example illustrates competitive elution of proteins bound to kinobeads with non-modified test compounds (see particularly the fourth aspect of the invention).
The kinobeads were contacted with mouse brain lysate under conditions that allow the binding of the proteins in the lysate to the ligands. The binding conditions were close to physiological by choosing suitable buffer conditions preserving the function of the proteins. After removing non-captured proteins through a gentle washing procedure the bound proteins were contacted with a test compound for protein elution.
Various test compounds (see section 2.7) were used to release bound proteins following these steps:
1. Resuspend beads with bound proteins (section 2.4) in 1×DP buffer/0.2% NP-40 as 1:3 slurry (volume/volume). 2. Transfer 20 μl the 1:3 slurry into MoBiTech columns (equivalent to 5 μl of beads). 3. Place the column into an Eppendorf tube and centrifuge it for 15 seconds at 800 rpm at 4° C. Close columns with lower lid. 4. Add 10 μl elution buffer containing 1.0 mM of the test compound (concentration ranges of 0.1 to 1.0 mM are suitable). As a control use elution buffer containing 2% DMSO or 2% DMF dependent on the solvent used for dissolving the test compound. Close column with upper lid. 5. Incubate for 30 minutes at 4° C. in an Eppendorf incubator at 700 rpm. 6. […] To harvest the eluate centrifuge 2 minutes at 2.000 rpm in table top centrifuge at room temperature. The typical volume of the eluate is approximately 15 μl. 7. Add 5 μl 4× NuPAGE SDS Sample Buffer (Invitrogen, NP0007) containing 100 mM DTT (DTT has to be added just prior to use). 8. Incubate for 30 minutes at 50° C. 9. Add 1/10 volume of 200 mg/ml iodoacetamide, incubate for 30 min at room temperature, protect from light. This reaction leads to the alkylation of cysteines for mass spectrometry. 10. Before loading samples onto the gel, centrifuge samples for 5 minutes at 15.000 rpm in order to remove precipitates. 11. […] 2.6 Preparation of Stock Solutions used in this Protocol
Search criteria varied depending on which mass spectrometer was used for the analysis.

EphB1 = biological target: T4, EphB1 (Mus musculus, UniProt Q8CBF3)
T4 sequence (Q8CBF3 18-984): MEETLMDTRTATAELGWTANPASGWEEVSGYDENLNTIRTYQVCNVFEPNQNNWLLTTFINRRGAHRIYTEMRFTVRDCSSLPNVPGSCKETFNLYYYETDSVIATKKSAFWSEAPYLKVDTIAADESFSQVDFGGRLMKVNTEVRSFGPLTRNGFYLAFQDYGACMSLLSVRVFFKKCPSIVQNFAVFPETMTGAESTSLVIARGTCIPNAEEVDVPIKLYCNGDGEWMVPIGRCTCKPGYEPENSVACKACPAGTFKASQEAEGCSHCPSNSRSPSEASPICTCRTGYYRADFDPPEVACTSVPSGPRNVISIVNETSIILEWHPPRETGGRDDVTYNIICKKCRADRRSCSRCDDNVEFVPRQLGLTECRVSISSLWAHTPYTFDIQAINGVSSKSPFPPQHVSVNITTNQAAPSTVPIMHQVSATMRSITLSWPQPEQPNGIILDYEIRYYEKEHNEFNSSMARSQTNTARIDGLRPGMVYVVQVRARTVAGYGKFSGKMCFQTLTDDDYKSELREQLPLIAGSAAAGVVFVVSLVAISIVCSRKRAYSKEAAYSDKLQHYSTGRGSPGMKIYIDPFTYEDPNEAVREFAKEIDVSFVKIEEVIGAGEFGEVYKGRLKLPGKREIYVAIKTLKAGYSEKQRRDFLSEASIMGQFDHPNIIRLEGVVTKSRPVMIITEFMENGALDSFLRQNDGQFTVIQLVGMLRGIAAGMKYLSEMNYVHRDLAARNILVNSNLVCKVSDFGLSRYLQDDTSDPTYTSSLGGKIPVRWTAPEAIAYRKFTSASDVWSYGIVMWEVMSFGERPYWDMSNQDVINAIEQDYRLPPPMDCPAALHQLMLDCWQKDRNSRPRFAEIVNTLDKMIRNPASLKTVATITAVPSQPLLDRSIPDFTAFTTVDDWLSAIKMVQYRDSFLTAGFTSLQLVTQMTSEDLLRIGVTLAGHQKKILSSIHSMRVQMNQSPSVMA
Procedure, shortened: as §1

T1 sequence (Q9WUI1 whole entry): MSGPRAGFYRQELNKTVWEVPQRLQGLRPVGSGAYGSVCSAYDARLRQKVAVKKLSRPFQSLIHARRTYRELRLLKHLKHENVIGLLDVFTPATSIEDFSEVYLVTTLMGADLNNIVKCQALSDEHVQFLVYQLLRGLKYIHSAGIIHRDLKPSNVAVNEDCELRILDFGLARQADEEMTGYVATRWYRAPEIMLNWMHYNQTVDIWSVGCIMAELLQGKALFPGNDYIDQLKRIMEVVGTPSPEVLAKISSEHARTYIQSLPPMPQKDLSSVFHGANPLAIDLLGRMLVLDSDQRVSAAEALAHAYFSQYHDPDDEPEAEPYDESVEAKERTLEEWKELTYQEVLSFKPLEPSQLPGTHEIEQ

| SMILES | mass spectrometry score, p38b (p38b) | number of identified peptides, p38b (p38b) | mass spectrometry score, p38a (p38a) | number of identified peptides, p38a (p38a) | mass spectrometry score, ARG (ARG) | number of identified peptides, ARG (ARG) | number of identified peptides, TRKB (TRKB) | mass spectrometry score, TRKB (TRKB) | mass spectrometry score, EphB1 (EphB1) | number of identified peptides, EphB1 (EphB1) |
| --- | --- | --- | --- | --- | --- | --- | --- | --- | --- | --- |
| Cn1c(=O)c(-c2c(Cl)cccc2Cl)cc2cnc(Nc3ccc(CN)cc3)cc21 [CZC7324] | 60 | 1 | 127 | 6 | 59 | 2 |  |  |  |  |
| CNC1CC2OC(C)(C1OC)n1c3ccccc3c3c4c(c5c6ccccc6n2c5c31)C(=O)NC4 (stereo not shown) [CZC9280] |  |  |  |  |  |  | 4 |  |  |  |
| CC(C)[C@H](CO)Nc1nc(Nc2ccc(C(=O)O)c(Cl)c2)c2ncn(C(C)C)c2n1 [Purvalanol B, reference compound] |  |  |  |  |  |  | 4 | 207 | 366 | 10 |
| CCCCCCCCCCCCOS(=O)(=O)[O-].[Na+] [SDS] | 95 | 3 | 104 | 7 | 452 | 28 |  |  | 180 | 10 |
